Consider 14 molecules from patent publication EP1862466A2, “Arrays with cleavable linkers” (THE SCRIPPS RESEARCH INSTITUTE, priority 2004, dated 2006).

One experiment deals with β3GlcNAcT. Put plainly: β3GlcNAcT acceptor specificity (relative enzyme activity). The experiment is classed as biochemical, N. meningitidis. To be noted: substance used as acceptor substrate; Galβ(1-4)Glc = 100. The text has this:
The inventors have previously cloned and characterized the bacterial N. meningitidis enzymes β4GalT-GalE and β3GlcNAcT. Blixt, O.;Brown, J.;Schur, M.;Wakarchuk, W. and Paulson, J. C., J. Org. Chem. 2001, 66, 2442-2448; Blixt, O.;van Die, I.;Norberg, T. and van den Eijnden, D. H., Glycobiol. 1999, 9, 1061-1071. β4GalT-GalE is a fusion protein constructed from β4GalT and the uridine-5'-diphospho-galactose-4'-epimerase (GalE) for in situ conversion of inexpensive UDP-glucose to UDP-galactose providing a cost efficient strategy.
Both enzymes, β4GalT-GalE and β3GlcNAcT, were over expressed in E. coli AD202 in a large-scale fermentor (100 L). Bacteria were cultured in 2YT medium and induced with iso-propyl-thiogalactopyranoside (IPTG) to ultimately produce 8-10 g of bacterial cell paste / L cell media. The enzymes were then released from the cells by a microfluidizer and were solubilized in Tris buffer (25 mM, pH 7.5) containing manganese chloride (10 mM) and Triton X (0.25%) to reach enzymatic activities of about 50 U/L and 115 U/L of cell culture β4GalT-GalE and β3GlcNAcT, respectively.
The structures of these disaccharides are provided below. [drawing 23] [drawing 24] [drawing 25] [drawing 26]
Adding the hydrophobic para-nitrophenyl ring as an aglycon to the reducing end of the acceptors enhanced the activity of the enzyme up to 10 fold (compare 4 with 5 and 6 with 7). The increase in the enzyme activity by adding a hydrophobic aglycon to the acceptor sugar, though to the lesser extent, has also been shown for β4GalT (compare 12 with 13,14). The relaxed substrate specificity of these enzymes makes them very useful for preparative synthesis of various carbohydrate structures, including poly-N-acetyllactosamines. Table 4. Selected β4GalT-GalE and β3GlcNAcT Specificity Data

Experiment [1] has as its target 2G12 antibody. Put plainly: Carbohydrate microarray analysis, microtiter-based, Scatchard plot (Kd). To be noted: for Kd: oligomannose immobilized as azide derivative on cleavable linker in microtiter plate, fluorescent secondary antibody. It counts as binding, human. The method, then:
Carbohydrate microarray analysis. Ninety-six well NHS-coated microtiter plates (NoAb Biodiscoveries) were treated with 200 µL of a 1 mM methanolic solution of the amino-functionalized disulfide and alkyne containing linker (scheme V) containing 5 % diisopropylethylamine (DIEA) and incubated overnight at 4°C. The microtiter plate was then washed with 2 x 200 µL methanol and 2 x 200 µL water. Next, 200 µL solutions of azido-functionalized oligomannose derivatives 21-25 at varying concentrations from 0 to 500 µM in 5 % DIEA / methanol were introduced. A sprinkle of copper (I) iodide was added and the contents were allowed to react overnight at 4°C. The next day, the contents were removed and the plates were washed with 2 x 200 µL methanol and 2 x 200 µL water. The plates were then blocked with 0.1 % Tween20 solution in HEPES buffer pH 7.5 at 4 °C for 1 hour and then washed with 3 x 200 µL HEPES buffer. Next, 200 µL of a 1 µg/mL solution of 2G12 antibody in 0.1 % Tween20 / PBS buffer was added to the wells for a 1 hour incubation at 4 °C and then washed with 2 x 200 µL PBS buffer. At this point, 200 µL of FITC-tagged goat anti-human IgG antibody (10 µg/mL in PBS, Cal Biochem) was added for 1 hour at 4 °C, and the wells were then washed with 2 x 200 µL PBS buffer. Detection of the FITC-tagged secondary antibody was performed in 200 µL water using a fluorescence plate reader. The resulting data yielded the oligomannose-2G12 binding isotherms and Scatchard plot analysis was implemented in the determination of dissociation constants. Adams et al. (2004) Chem. Biol. 11: 875-81.
Overall, many of the oligomannose derivatives can compete for binding of Man9GlcNAc2, and, therefore, may serve as building blocks for potential immunogens to elicit 2G12-like antibodies. Carbohydrate Microarray Analysis. Previous studies by the inventors using covalent microtiter plates with a panel of carbohydrate epitopes for interaction with 2G12 involved converting the amine-containing oligomannoses 4, 5, 7, 8 and 9 to the corresponding azide derivatives 21, 22, 23, 24 and 25. These derivatives were then covalently attached to a microplate-immobilized cleavable linker via the Cu (I)-catalyzed 1,3-dipolar cycloaddition reaction (FIG. 11B). Kd values for the interaction of 2G12 with oligomannoses 4, 5, 7, 8, 9 (Table 9) were determined using a microtiter-based assay with detection via a fluorescent secondary antibody (see Bryan et al.(2004) J. Am. Chem. Soc. 126, 8640-41). Table 9: The Kd values of oligomannoses 1 and 4, 5, 7, 8, 9 binding to 2G12, as determined by carbohydrate microarray analysis.

The test system of another experiment is 2G12 anti-HIV antibody. As to the kind of experiment: 2G12 binding to glycan array printed on glass slide. To be noted: for Rel. spec. (relative binding activity of 2G12): glass-slide glycan array, 2G12 pre-complexed with secondary anti-IgG-FITC; for binding of 2G12 antibodies (in words): glycan array, initial experiments. Details: species or system human. The method, then:
Construction of a glycan array printed on a glass slide: The library of carbohydrate structures was obtained through chemical and chemo-enzymatic synthesis as described above, as well as natural sources. This compound library contained a N-hydroxy succinimide (NHS)-reactive primary amino group, which was printed on a commercial NHS-activated glass surface (Accelr8 Technology Corporation, Denver, CO) using a microarray gene printer (TSRI).
Each glycan type was printed (≈0.5nL/spot) at various concentrations (10-100 µM) and each concentration in a replicate of six. Slides were further incubated with ethanolamine buffer to deactivate remaining NHS functional groups.
The 2G12 antibody was pre-complexed (for 10 min) with secondary human anti-IgG-FITC (2:1, 20µg/mL) prior to application to the glycan array. After incubation with the 2G12 antibodies, the array was washed by dipping the slide in buffer and water.

Experiment [2] has as its target 2G12 antibody. As to the kind of experiment: 2G12 binding study on cleavable linker glycan array in microtiter plates (Kd). Also on record: species or system human. To be noted: binding to 2G12 antibody. On the procedure:
Cleavable Linker Glycan Array in Microtiter Plates: Further experiments were performed using glycans immobilized within microtiter wells with the cleavable triazole linkers described in Example 7 as shown in FIG. 11.
2G12 Binding: After washing with QH2O, wells were blocked with 10 mM HEPES buffer, pH 7.5/150 mM NaCl buffer (200 µL) containing 0.1% Tween-20 over 1 h at 4 °C. The buffer was then removed and 2G12 (17 µg/mL PBS buffer; 200 µL) was incubated in the well over 1 h at 4°C. Wells were then washed with PBS buffer (3×; 200 µL) and fluorescein-conjugated Goat Anti-Human IgG antibody (14 µg/mL PBS buffer; 200 µL) was incubated in the well over 1 h in the dark at 4 °C. Wells were then washed with PBS buffer (3×; 200 µL) and fluorescence was measured with an excitation wavelength of 485 nm and emission wavelength of 535 nm.
Further studies were performed using a cleavable linker array to clarify the types of mannose-containing glycans bound by the 2G12 anti-HIV antibodies. […] The results of a binding study using increasing amounts of labeled Manα1,2Manα1,3Manα1,2 Manα1,6Man glycan with a constant amount of 2G12 antibody are shown in FIG. 16.

Take `OC[C@H]1O[C@@H](O[C@H]2[C@H](O)[C@@H](O)[C@H](O)O[C@@H]2CO)[C@H](O)[C@@H](O)[C@H]1O` [Acceptor 4, Galβ(1-4)Glc, reference compound]: the “Relative enzyme activity (%) β(1-3)GlcNAcT-activity” value in the experiment on β3GlcNAcT was found to be 100%.

Turning to `OCC1O[C@@H](O)C(O)[C@@H](O)[C@@H]1O[C@@H]1OC(CO)[C@H](O)[C@H](O)C1O` (stereo partly shown) [Compound 4], the “Relative enzyme activity (%) β(1-3)GlcNAcT-activity” value in the experiment on β3GlcNAcT was found to be 100%. The molecule further displayed a Kd on 2G12 antibody [1] of 100 nM. For `O=[N+]([O-])c1ccc(O[C@@H]2OC(CO)[C@@H](O[C@@H]3OC(CO)[C@H](O)[C@H](O)C3O)[C@H](O)C2O)cc1` (stereo partly shown) [Compound 5] the same measures were 945% and 100 nM.

Take `CC(=O)N[C@H]1C(O)O[C@H](CO)[C@@H](O[C@@H]2O[C@H](CO)[C@H](O)[C@H](O)[C@H]2O)[C@@H]1O` (stereo partly shown) [Compound 6]: the “Relative enzyme activity (%) β(1-3)GlcNAcT-activity” value in the experiment on β3GlcNAcT worked out at 7%. As to `NCCCO[C@H]1O[C@H](CO)[C@@H](O)[C@H](O[C@H]2O[C@H](CO)[C@@H](O)[C@H](O)[C@@H]2O[C@H]2O[C@H](CO)[C@@H](O)[C@H](O)[C@@H]2O[C@H]2O[C@H](CO)[C@@H](O)[C@H](O)[C@@H]2O)[C@@H]1O` [Glycan 135], the “Rel. spec. (relative binding activity of 2G12)” value in the experiment on 2G12 anti-HIV antibody is on record as “+++ (+++ >25,000)”. Still for that read-out and setting: the entry for `NCCCO[C@H]1O[C@H](CO[C@H]2O[C@H](CO)[C@@H](O)[C@H](O)[C@@H]2O[C@H]2O[C@H](CO)[C@@H](O)[C@H](O)[C@@H]2O)[C@@H](O)[C@H](O[C@H]2O[C@H](CO)[C@@H](O)[C@H](O)[C@@H]2O[C@H]2O[C@H](CO)[C@@H](O)[C@H](O)[C@@H]2O)[C@@H]1O` [Glycan 136] is “+++ (+++ >25,000)”. Same read-out and setting: under `NCCCO[C@H]1O[C@H](CO[C@H]2O[C@H](CO)[C@@H](O)[C@H](O)[C@@H]2O[C@H]2O[C@H](CO)[C@@H](O)[C@H](O)[C@@H]2O[C@H]2O[C@H](CO)[C@@H](O)[C@H](O)[C@@H]2O)[C@@H](O)[C@H](O[C@H]2O[C@H](CO)[C@@H](O)[C@H](O)[C@@H]2O)[C@@H]1O` [Glycan 138] stands “+++ (+++ >25,000)”. On to `NCCCCCO[C@H]1O[C@H](CO)[C@@H](O)[C@H](O[C@H]2O[C@H](CO)[C@@H](O)[C@H](O)[C@@H]2O[C@H]2O[C@H](CO)[C@@H](O)[C@H](O)[C@@H]2O[C@H]2O[C@H](CO)[C@@H](O)[C@H](O)[C@@H]2O)[C@@H]1O` [Oligomannose 4], for which the “affinity for 2G12 antibodies (in words)” value in the experiment on 2G12 antibody [1] (microtiter plate array) is listed as “greatest affinity”. With “Galβ(1-4)GlcNAc [Acceptor 6, reference compound]”, in the experiment with β3GlcNAcT, the “Relative enzyme activity (%) β(1-3)GlcNAcT-activity” value is given as 7-8%. Turning to Man-8#aa Man8-aminoacid [Glycan 144], in the experiment on 2G12 anti-HIV antibody, the “binding of 2G12 antibodies (in words)” value was “Binding was observed”.

Man-9#aa Man9-aminoacid [Glycan 145]: the “binding of 2G12 antibodies (in words)” value in the experiment with 2G12 anti-HIV antibody is on record as “smaller level of binding”. The molecule “Manα1,2Manα1,2Manα1,3(Manα1,2Man1,2Man1.6)Man” came in with a dissociation constant (Kd) at 2G12 antibody [2] of 700 nM. On 2G12 antibody [2], Manα1,2Manα1,3Manα1,2 Manα1,6Man displayed a Kd of 100 nM. The molecule “Manα 1,2Manα1 ,2Manα1 1,3(Manα1,2Man1,3 (Manα1.2Manα1 ,2Manα 1.6) )Man” returned a Kd at 2G12 antibody [2] of 1000 nM.

The term Kd denotes the constant that tells how readily two partners part at equilibrium. Read a high Kd as weaker binding.
